Data published in article PMC8343220, “The selectivity of α‐adrenoceptor agonists for the human α1A, α1B, and α1D‐adrenoceptors” (Pharmacology Research & Perspectives, 2021).
pIC50, pKd: −log10 of the molar value.

Key:
[1] = target: T1, human α1A‐adrenoceptor (Homo sapiens, UniProt P35348); experiment: ^3H‐prazosin whole‐cell radioligand binding, CHO‐α1A cells
T1 construct: expressed in transfected cells; host or cells: CHO-K1
T1 sequence (P35348 1-466): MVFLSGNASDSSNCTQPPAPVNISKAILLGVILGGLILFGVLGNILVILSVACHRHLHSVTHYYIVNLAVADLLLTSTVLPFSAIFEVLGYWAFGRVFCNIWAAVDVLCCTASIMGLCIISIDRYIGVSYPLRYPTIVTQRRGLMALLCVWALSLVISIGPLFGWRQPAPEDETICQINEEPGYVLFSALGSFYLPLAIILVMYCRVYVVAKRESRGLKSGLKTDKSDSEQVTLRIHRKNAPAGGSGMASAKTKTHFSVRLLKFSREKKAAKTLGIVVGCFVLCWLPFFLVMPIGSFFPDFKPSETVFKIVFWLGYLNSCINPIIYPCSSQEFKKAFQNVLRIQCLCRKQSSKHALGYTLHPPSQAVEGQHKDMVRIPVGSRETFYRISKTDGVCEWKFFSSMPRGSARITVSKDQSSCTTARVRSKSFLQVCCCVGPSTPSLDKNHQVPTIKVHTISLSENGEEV

[2] = target: T2, human α1B‐adrenoceptor (Homo sapiens, UniProt P35368); experiment: ^3H‐prazosin whole‐cell radioligand binding, CHO‐α1B cells; details: CHO‐α1B cells; printed as IC50> log value
T2 construct: expressed in transfected cells; host or cells: CHO-K1
T2 sequence (P35368 1-520): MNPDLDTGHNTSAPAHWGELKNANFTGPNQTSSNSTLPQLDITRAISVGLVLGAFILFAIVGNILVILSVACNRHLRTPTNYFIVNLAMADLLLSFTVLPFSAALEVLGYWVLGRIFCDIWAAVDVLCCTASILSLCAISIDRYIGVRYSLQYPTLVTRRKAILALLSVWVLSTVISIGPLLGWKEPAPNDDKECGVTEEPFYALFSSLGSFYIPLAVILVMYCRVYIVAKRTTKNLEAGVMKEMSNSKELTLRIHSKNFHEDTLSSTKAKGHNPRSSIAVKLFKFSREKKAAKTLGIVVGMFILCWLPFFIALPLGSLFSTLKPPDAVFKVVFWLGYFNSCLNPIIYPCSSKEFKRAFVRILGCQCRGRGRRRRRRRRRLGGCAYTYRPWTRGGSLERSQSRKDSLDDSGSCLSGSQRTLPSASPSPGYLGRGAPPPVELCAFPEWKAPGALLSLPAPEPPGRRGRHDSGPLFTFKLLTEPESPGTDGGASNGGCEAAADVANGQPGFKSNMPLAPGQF

[3] = target: T3, human α1D‐adrenoceptor (full length) (Homo sapiens, UniProt P25100); experiment: ^3H‐prazosin whole‐cell radioligand binding, CHO‐α1D cells; details: for pKd: CHO‐α1D cells
T3 construct: human α1D‐adrenoceptor (full length) were used; expressed in transfected cells; host or cells: CHO-K1
T3 sequence (P25100 1-572): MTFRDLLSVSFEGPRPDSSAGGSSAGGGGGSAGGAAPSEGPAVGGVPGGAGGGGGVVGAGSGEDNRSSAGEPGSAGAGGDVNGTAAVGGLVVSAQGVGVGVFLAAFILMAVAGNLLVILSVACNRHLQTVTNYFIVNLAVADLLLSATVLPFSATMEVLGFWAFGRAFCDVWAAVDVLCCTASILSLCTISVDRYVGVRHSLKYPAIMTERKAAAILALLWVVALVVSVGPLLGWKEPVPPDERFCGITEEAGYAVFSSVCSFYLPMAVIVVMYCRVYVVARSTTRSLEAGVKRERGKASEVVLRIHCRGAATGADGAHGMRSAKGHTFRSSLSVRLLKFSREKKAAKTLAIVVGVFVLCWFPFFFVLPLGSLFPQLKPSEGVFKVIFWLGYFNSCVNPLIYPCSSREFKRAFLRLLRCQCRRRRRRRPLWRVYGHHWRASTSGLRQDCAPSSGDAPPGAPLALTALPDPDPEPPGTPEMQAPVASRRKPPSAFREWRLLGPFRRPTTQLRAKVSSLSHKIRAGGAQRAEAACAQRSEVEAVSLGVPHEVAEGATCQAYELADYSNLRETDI

[4] = target: T2, human α1B‐adrenoceptor; experiment: Intracellular free calcium mobilization, CHO‐α1B cells; assay type: cell-based; details: CHO‐α1B cells
[5] = target: T1, human α1A‐adrenoceptor; experiment: ERK1/2‐phosphorylation (Surefire Alphascreen), CHO‐α1A cells; assay type: cell-based; details: CHO‐α1A cells, ^a bi‐phasic: initial stimulatory part
[6] = target: T3, human α1D‐adrenoceptor (full length); experiment: ERK1/2‐phosphorylation (Surefire Alphascreen), CHO‐α1D cells; assay type: cell-based; details: CHO‐α1D cells
[7] = tested on: parental CHO cell line without any transfected receptors; experiment: ERK1/2‐phosphorylation, parent CHO cells without transfected receptors; assay type: cell-based, Chinese hamster; details: CHO cells without transfected receptors, mean ± s.e.m.
[8] = target: T1, human α1A‐adrenoceptor; experiment: ^3H‐cAMP accumulation, CHO‐α1A cells; assay type: cell-based; details: CHO‐α1A cells; response at 100 μM ligand, no EC50 obtained
[9] = target: T2, human α1B‐adrenoceptor; experiment: ^3H‐cAMP accumulation, CHO‐α1B cells; assay type: cell-based; details: CHO‐α1B cells; response at 100 µM ligand (no EC50 given)
[10] = target: T3, human α1D‐adrenoceptor (full length); experiment: ^3H‐cAMP accumulation, CHO‐α1D cells; assay type: cell-based; details: cAMP accumulation without forskolin
[11] = target: T1, human α1A‐adrenoceptor; experiment: ^3H‐cAMP accumulation in the presence of 10 μM forskolin, CHO‐α1A cells; assay type: cell-based; details: CHO‐α1A cells
[12] = target: T2, human α1B‐adrenoceptor; experiment: ^3H‐cAMP accumulation in the presence of 10 μM forskolin, CHO‐α1B cells; assay type: cell-based; details: CHO‐α1B cells
[13] = tested on: parental CHO cell line without any transfected receptors; experiment: Forskolin‐stimulated cAMP accumulation, parent CHO cells without transfected receptors; assay type: cell-based, Chinese hamster; details: CHO cells without transfected receptors; in presence of forskolin
[14] = fold increase of the forskolin response

pKd ([1]; Log KD α1A, ^3H‐prazosin whole cell binding, CHO‐α1A cells, given as log KD (negative), mean ± SEM): 3.99
Affinity selectivity ratio α1A vs α1B ([1]; higher affinity for α1A than α1B): >9.8 fold
pIC50 [2]: < 3.00
pKd ([3]; 3H‐prazosin binding Log KD, whole‐cell binding (from Table 1), log values given negative): 4.45
pKd ([3]; Log KD α1D, ^3H‐prazosin whole cell binding, given as log KD (negative), mean ± SEM, 'early plateau' = specific binding not fully inhibited): 4.45
Affinity selectivity ratio α1A vs α1D ([3]; higher affinity for α1D than α1A): 2.9 fold
Affinity selectivity ratio α1B vs α1D ([3]; higher affinity for α1D than α1B): >28.1 fold
EC50 ([4]; given as log EC50 (negative numbers), read-out: Intracellular calcium release Log EC50 (converted)): 0.0138 µM
Log efficacy ratio KD /EC50 ([4]; intrinsic efficacy ratio, KD from binding / EC50 calcium, log): >4.86
Intracellular calcium release % ionomycin ([4]; maximal response as % of 10 µM ionomycin response): 61.1 ± 2.1%
EC50 ([5]; 2–4 min, ^b also active in parent CHO cells, read-out: ERK1/2‐phosphorylation Log EC50 (converted)): 0.145 µM
ERK1/2‐phosphorylation % PDBu ([5]; % of 10 µM PDBu): 72.8 ± 7.0%
EC50 ([6]; log values given negative, read-out: ERK1/2‐phosphorylation Log EC50 (converted)): 1.51 µM
ERK1/2‐phosphorylation % PDBu ([6]; maximal response as % of PDBu): 16.8 ± 2.0%
cAMP accumulation % forskolin at 100 µM [8]: 82.7 ± 5.5%
cAMP accumulation % forskolin at 100 µM [9]: 73.4 ± 7.1%
cAMP Log EC50 [10]: No response
EC50 ([11]; 10 μM forskolin, read-out: cAMP accumulation (in presence of forskolin) Log EC50 (converted)): 1.29 µM
cAMP accumulation (in presence of forskolin) Fold increase [11, 14]: 2.17 ± 0.08 fold
cAMP accumulation (in presence of forskolin) Fold increase [12, 14]: 2.47 ± 0.09 fold
EC50 ([12]; in presence of forskolin, read-out: cAMP accumulation (in presence of forskolin) Log EC50 (converted)): 0.661 µM
SMILES: CCNCC(O)c1cccc(O)c1 (stereo not drawn) [Etilefrine]
ERK1/2-phosphorylation % PDBu ([7]; maximal response as % of PDBu (10μM) response): No response
ERK1/2-phosphorylation Log EC50 [7]: No response
cAMP accumulation (in presence of forskolin) Log EC50 [13]: No response
